Data: PubChem BioAssay (NCI)
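Step 1: Grow cells in 96-well plates. Step 2: Expose to compound for 48 hours at 5 concentrations. Step 3: Interpolate endpoints linearly; if unreached, use highest concentration. TGI: total growth inhibition.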

Tests used:
Experiment in all cases: NCI tumour cell line growth inhibition, 48 h
786-0 renal = tested on: 786-0 renal
A549 NSCLC = tested on: A549 NSCLC
ACHN renal = tested on: ACHN renal
BT-549 breast = tested on: BT-549 breast
CAKI-1 renal = tested on: CAKI-1 renal
COLO 205 colon = tested on: COLO 205 colon
DU-145 prostate = tested on: DU-145 prostate
EKVX NSCLC = tested on: EKVX NSCLC
HCC-2998 colon = tested on: HCC-2998 colon
HCT-116 colon = tested on: HCT-116 colon
HCT-15 colon = tested on: HCT-15 colon
HOP-62 NSCLC = tested on: HOP-62 NSCLC
HT29 colon = tested on: HT29 colon
IGROV1 ovarian = tested on: IGROV1 ovarian
K-562 leukemia = tested on: K-562 leukemia
KM12 colon = tested on: KM12 colon
LOX IMVI melanoma = tested on: LOX IMVI melanoma
M14 melanoma = tested on: M14 melanoma
MALME-3M melanoma = tested on: MALME-3M melanoma
MCF7 breast = tested on: MCF7 breast
MDA-MB-231 breast = tested on: MDA-MB-231 breast
MDA-MB-435 = tested on: MDA-MB-435
NCI-H226 lung = tested on: NCI-H226 lung
NCI-H23 lung = tested on: NCI-H23 lung
NCI-H460 lung = tested on: NCI-H460 lung
NCI/ADR-RES ovarian = tested on: NCI/ADR-RES ovarian
OVCAR-3 ovarian = tested on: OVCAR-3 ovarian
OVCAR-4 ovarian = tested on: OVCAR-4 ovarian
OVCAR-5 ovarian = tested on: OVCAR-5 ovarian
OVCAR-8 ovarian = tested on: OVCAR-8 ovarian
PC-3 prostate = tested on: PC-3 prostate
RPMI-8226 leukemia = tested on: RPMI-8226 leukemia
SF-268 CNS = tested on: SF-268 CNS
SF-295 CNS = tested on: SF-295 CNS
SF-539 CNS = tested on: SF-539 CNS
SK-MEL-2 melanoma = tested on: SK-MEL-2 melanoma
SK-MEL-5 melanoma = tested on: SK-MEL-5 melanoma
SK-OV-3 ovarian = tested on: SK-OV-3 ovarian
SNB-19 CNS = tested on: SNB-19 CNS
SR leukemia = tested on: SR leukemia
SW-620 colon = tested on: SW-620 colon
T-47D breast = tested on: T-47D breast
TK-10 renal = tested on: TK-10 renal
U251 CNS = tested on: U251 CNS
UACC-257 melanoma = tested on: UACC-257 melanoma
UACC-62 melanoma = tested on: UACC-62 melanoma
UO-31 renal = tested on: UO-31 renal
A498 renal = tested on: A498 renal
CCRF-CEM leukemia = tested on: CCRF-CEM leukemia
HOP-92 NSCLC = tested on: HOP-92 NSCLC
MOLT-4 leukemia = tested on: MOLT-4 leukemia
RXF 393 renal = tested on: RXF 393 renal
SK-MEL-28 melanoma = tested on: SK-MEL-28 melanoma
SNB-75 CNS = tested on: SNB-75 CNS

Measured: TGI

COCP1(=S)OC(C)CCN1C(C)C (stereo unspecified)
not listed: A498 renal | CCRF-CEM leukemia | HOP-92 NSCLC | MOLT-4 leukemia | RXF 393 renal | SK-MEL-28 melanoma | SNB-75 CNS
> 100 µM: all other assays above

COc1ccc(C2c3c(n(C)c(=O)n(C)c3=O)OC(N(C)C)(N(C)C)C2(F)F)cc1 (stereo unspecified)
not listed: HT29 colon | IGROV1 ovarian | MALME-3M melanoma | OVCAR-8 ovarian | SR leukemia
> 100 µM: all other assays above
